Results taken from US20250032468A1, “OCULAR SURFACE TOPICAL ADMINISTRATION OF ROFLUMILAST FOR TREATMENT OF ANTERIOR AND RETINAL-VITREOUS CHAMBER OCULAR DISEASES” (IOLYX THERAPEUTICS, INC., priority 2023, published 2025).
Where two headings read alike, the source gives them in different places.

Assays:
[1] = Ocular pigment binding, equilibrium sepia melanin association (Covance, method by Koeberle et al.); type: in vitro ADME
[2] = 13-week repeated topical ocular administration toxicity study in rabbits (Example 11); details: for intraocular pressure: FIG. 15
Protocol: (§1) A study was conducted to evaluate toxicity outcomes of repeated topical ocular administration of roflumilast. Male and female New Zealand white rabbits (n=7 per group) were administered: (a) vehicle-based placebo three times a day; (b) a 0.1% w/v roflumilast formulation (Example 3) three times a day; (c) a 0.3% w/v roflumilast formulation (Example 3) three times a day; or (d) a 1.0% w/v roflumilast formulation (Example 3) three times a day. In the study, male and female New Zealand White rabbits received 13 weeks of topical treatment, three times a day, followed by a four-week recovery period, in four dose arms, 0%, 0.1%, 0.3%, and 1% concentration of roflumilast. In addition to regular safety and well-being checks, animals were given regular ophthalmic exams, measurement of weight, tonometry to test intraocular pressure, clinical chemistry and hematological evaluation, and other routine checks of health and well being. At the point of study termination, ocular tissues and major organs were tested for macro- and microscopic observation. […] Parameters evaluated included body weight, intraocular pressure (IOP), and central corneal thickness (CCT).

[3] = Saturation concentration of roflumilast in the suspension formulation; type: physicochemical; details: formulation characteristic used in the simulation
Protocol: Computational modeling of topical ophthalmic roflumilast dosing was carried out using an ocular simulation computer program based on Matlab® (Mathworks, Natick, MA) programming language using a runtime Java® applet for a graphical user-friendly interface. Physiological and anatomic parameters for the ocular simulation were customized to model the pigmented rabbit eye, by entering appropriate volumes of distribution and surface areas of anterior and posterior compartment tissues. […] Based on these parameters, theoretical calculations were carried out for all simulations, while for matching concentrations with actual experimental data the model was used for comparison, fitting, and optimization.

[4] = 13-week repeated topical ocular administration study in dogs (Example 10)
Excerpt: (§2) In the study, male and female dogs (n=3M/3F per arm to week 13, 2M/2F to additional 4 week recovery) received 13 weeks of topical treatment, three times a day, followed by a four week recovery period, in four dose arms, 0%, 0.1%, 0.3%, and 1% concentration of roflumilast. In addition to regular safety and well-being checks, animals were given regular ophthalmic exams, measurement of weight, tonometry to test intraocular pressure, pachymetery to test corneal thickness, clinical chemistry and hematological evaluation, and other routine checks of health and well-being. At the point of study termination, ocular tissues and major organs were tested for macro- and microscopic observation.

[5] = dog, in vivo
Excerpt: as §2

[6] = rabbit, in vivo
Protocol: as §1

PDE4 A, B, D = details: also printed as 0.07 ng/g; cited from earlier work
[7] = Ocular tissue concentration of roflumilast after 5 days topical ocular dosing (Example 8, Table 7); type: in vivo, Dutch belted rabbits
Protocol: Two unique animal studies were conducted to assess the concentration of roflumilast in various tissues following administration of different concentrations of Example 3. The concentration in various tissues was assessed following five days of administration of the following dosing regimens: (a) 1% w/v roflumilast three times a day (TID); (b) 0.3% w/v roflumilast three times a day (TID); or (c) 0.1% w/v roflumilast two times a day (BID). In one study encompassing (a) and (b), n=6 Dutch belted rabbits per dose arm were dosed topically three times per day according to arm on days 1 to 4, and on day 5, a single dose was given at hour 0. In a different study with the same methodologies and practices, n=21 Dutch belted rabbits represented in group (c) were dosed two times per day on days 1 to 4, and on day 5, a single dose was given at hour 0. […] In the original study conducted solely with arm (c), a dose curve was created using time points at 0.5, 2, 4, 8, and 24 hours. To reduce the number of animals in the second experiment, for group (a) and (b), only 0.5 and 8 hours were tested. FIG. 1 provides data for the concentration of roflumilast (ng/g) in the iris ciliary body (ICB) as a function of time following: (a) 1% w/v roflumilast administered three times a day; (b) 0.3% w/v roflumilast administered three times a day; or (c) 0.1% w/v roflumilast administered two times a day. FIG. 2 provides data for the concentration of roflumilast (ng/g) in the aqueous humor (AH) as a function of time following: (a) 1% w/v roflumilast administered three times a day; (b) 0.3% w/v roflumilast administered three times a day; or (c) 0.1% w/v roflumilast administered two times a day. FIG. 3 provides data for the concentration of roflumilast (ng/g) in the retina/choroid/retina pigment epithelium (RPE) as a function of time following: (a) 1% w/v roflumilast administered three times a day; (b) 0.3% w/v roflumilast administered three times a day; or (c) 0.1% w/v roflumilast administered two times a day. […] (Claveau, 2004) This ratio is shown at both 0.5 hours, closest to a Cmax time point, and 8 hrs, which would be a time point close to a redosing time point for a TID dosing.

## O=C(Nc1c(Cl)cncc1Cl)c1ccc(OC(F)F)c(OCC2CC2)c1 [Roflumilast, N-(3,5-dichloropyrid-4-yl)-3-cyclopropylmethoxy-4-difluoromethoxybenzamide]
[1]
  ocular pigment binding: medium to high
[2]; New Zealand White rabbits, 0.1%, 0.3%, 1% TID topical ocular, 13 weeks plus four-week recovery
  major clinical or pathological findings in life or post-mortem: no major test article related findings
[2]; rabbits, 0.1% w/v TID, day 28, only transiently, still within a normal range
  intraocular pressure: higher
[2]; rabbits, 0.1%, 0.3%, 1.0% w/v TID
  systemic adverse effect on the eye or other organs (ophthalmic and other exams): little to no systemic adverse effect
[2]; rabbits, all concentrations TID, compared to vehicle-based placebo, FIG. 14
  body weight: did not lose weight
[2]; rabbits, all treatment groups, FIG. 16
  central corneal thickness: substantially the same for all treatment groups
[2]; rabbits, all treatment groups, remaining days
  intraocular pressure: substantially the same for all treatment groups
[3]
  saturation concentration: 6 µg/mL
[4]; 0.1%, 0.3%, 1% TID topical ocular, 13 weeks plus 4 week recovery
  major clinical or pathological findings in life or post-mortem: no major test article related findings
[4]; 0.1%, 0.3%, 1.0% w/v TID
  systemic adverse effect on the eye or other organs (ophthalmic and other exams): little to no systemic adverse effect
[4]; all concentrations TID, compared to vehicle-based placebo, FIG. 11
  body weight: did not lose weight
[4]; all treatment groups over the duration of the study, FIG. 13
  central corneal thickness: substantially consistent for all treatment groups
[4]; all treatment groups, only transient changes seen sporadically, FIG. 12
  intraocular pressure: substantially the same for all treatment groups
[5]
  tolerability: well tolerated at all concentrations
[6]
  tolerability: well tolerated at all concentrations
PDE4 A, B, D
  IC50 of t-cells for the PDE4 A, B, D targets: 0.07 ng/mL
[7]; AH, 0.10% BID days 1-4, single dose day 5, 0.5 hrs post dose
  Ratio of Roflumilast Concentration to PDE4 IC50: 53×
[7]; AH, 0.10% BID days 1-4, single dose day 5, 8 hrs post dose
  Ratio of Roflumilast Concentration to PDE4 IC50: 0×
[7]; AH, 0.30% TID days 1-4, single dose day 5, 0.5 hrs post dose
  Ratio of Roflumilast Concentration to PDE4 IC50: 143×
[7]; AH, 0.30% TID days 1-4, single dose day 5, 8 hrs post dose
  Ratio of Roflumilast Concentration to PDE4 IC50: 4×
[7]; AH, 1.00% TID days 1-4, single dose day 5, 0.5 hrs post dose
  Ratio of Roflumilast Concentration to PDE4 IC50: 476×
[7]; AH, 1.00% TID days 1-4, single dose day 5, 8 hrs post dose
  Ratio of Roflumilast Concentration to PDE4 IC50: 10×
[7]; Cornea, 0.10% BID days 1-4, single dose day 5, 0.5 hrs post dose
  Ratio of Roflumilast Concentration to PDE4 IC50: 2286×
[7]; Cornea, 0.10% BID days 1-4, single dose day 5, 8 hrs post dose
  Ratio of Roflumilast Concentration to PDE4 IC50: 509×
[7]; ICB, AH, and retina/choroid/RPE, 0.3% and 1% TID
  tissue levels relative to the IC50 level: strong elevation in tissue levels above the IC50 level
[7]; ICB, 0.10% BID days 1-4, single dose day 5, 0.5 hrs post dose
  Ratio of Roflumilast Concentration to PDE4 IC50: 66×
[7]; ICB, 0.10% BID days 1-4, single dose day 5, 8 hrs post dose
  Ratio of Roflumilast Concentration to PDE4 IC50: 2×
[7]; ICB, 0.30% TID days 1-4, single dose day 5, 0.5 hrs post dose
  Ratio of Roflumilast Concentration to PDE4 IC50: 247×
[7]; ICB, 0.30% TID days 1-4, single dose day 5, 8 hrs post dose
  Ratio of Roflumilast Concentration to PDE4 IC50: 9×
[7]; ICB, 1.00% TID days 1-4, single dose day 5, 0.5 hrs post dose
  Ratio of Roflumilast Concentration to PDE4 IC50: 534×
[7]; ICB, 1.00% TID days 1-4, single dose day 5, 8 hrs post dose
  Ratio of Roflumilast Concentration to PDE4 IC50: 22×
[7]; RET/CHOR, 0.10% BID days 1-4, single dose day 5, 0.5 hrs post dose
  Ratio of Roflumilast Concentration to PDE4 IC50: 15×
[7]; RET/CHOR, 0.10% BID days 1-4, single dose day 5, 8 hrs post dose
  Ratio of Roflumilast Concentration to PDE4 IC50: 5×
[7]; RET/CHOR, 0.30% TID days 1-4, single dose day 5, 0.5 hrs post dose
  Ratio of Roflumilast Concentration to PDE4 IC50: 91×
[7]; RET/CHOR, 0.30% TID days 1-4, single dose day 5, 8 hrs post dose
  Ratio of Roflumilast Concentration to PDE4 IC50: 14×
[7]; RET/CHOR, 1.00% TID days 1-4, single dose day 5, 0.5 hrs post dose
  Ratio of Roflumilast Concentration to PDE4 IC50: 167×
[7]; RET/CHOR, 1.00% TID days 1-4, single dose day 5, 8 hrs post dose
  Ratio of Roflumilast Concentration to PDE4 IC50: 52×
[7]; cornea, 0.1% BID four days plus single dose day 5, FIG. 5
  duration of terminal level therapeutic concentrations covering the relevant IC50: ~24 h
